Literature values, collected in patent US10316053B2, “Flavonoid compounds and uses thereof” (ARMARON BIO PTY LTD, priority 2012, dated 2019).

System: myocardial ischaemia and reperfusion
Conditions: in vitro studies; Wang et al., Br J Pharmacol (2004) 142, 443-452

In the case of `O=c1c(O)c(-c2ccc(O)c(O)c2)oc2ccccc12` [DiOHF, 3′,4′-dihydroxy flavonol], the “infarct and injury associated with myocardial ischaemia and reperfusion” value is listed as “reduce infarct and injury”.
